According to US12642856B2, “Degraders of hepatitis C virus NS3/4A protein” (DANA-FARBER CANCER INSTITUTE, INC., priority 2018, dated 2026):
Read-outs that look alike come from different tables or passages of the source.

Key:
[1] = target: T1, HCV NS3 fusion protein (UniProt P27958+Q96SW2); assay: NS3 degradation competition assay with lenalidomide; format: cell-based, Hepatitis C virus; details: Western blot; for effect of lenalidomide on compound-induced degradation of NS3: excess of cereblon ligand lenalidomide
T1 construct: expressing the full-length HCV NS3 protein fused to eGFP; mCherry via FMVD 2A self-cleavage linker (C, cleaved yes); expressed in transfected cells
From the text: The expression of the NS3 fusion protein was induced prior to the treatment of the NS3 expressing cells with an excess of the cereblon ligand lenalidomide.
FIG. 3 is a photograph of a Western blot showing degradation of HCV NS3 in the absence and presence of lenalidomide.

[2] = target: T2, full-length HCV NS3 protein fused to eGFP (UniProt P27958+Q96SW2); assay: Transient cellular HCV NS3 degradation assay; format: cell-based, Hepatitis C virus; details: for degradation of HCV NS3 by Western blot: 4-hour and 24-hour treatments, NS3-eGFP and NS3-eGFP-mCherry fusion proteins; for DC50: read-out: IC50, concentration that led to a 50% reduction in NS3-eGFP accumulation, flow cytometry; for DC50 / degradation of transiently expressed HCV NS3 (decrease in NS3-eGFP abundance): 4 hour treatment; for degradation of transiently expressed HCV NS3 (decrease in NS3-eGFP abundance): increasing concentrations
T2 construct: expressing the full-length HCV NS3 protein fused to eGFP; mCherry via FMVD 2A self-cleavage linker (C, cleaved yes); expressed in transfected cells
From the text: A system was set up to monitor NS3 degradation in the absence of other processes of the infectious viral cycle. […] Expressed in the absence of its cofactor, NS4A, the NS3 protein lacks any enzymatic activity, and the abundance of the NS3-eGFP fusion protein can be reliably monitored by eGFP fluorescence. Since the mCherry portion of the fusion protein is cleaved off during translation, its abundance in cells is not affected by small molecule-induced degradation of NS3-eGFP, and thus it serves as a control for protein expression. […]
The NS3 expressing cells were treated with increasing concentrations of compounds 13 and 22 for 4 hours. […] Compound 11 is an alpha-hydroxylamide analog of compound 13 that cannot form a covalent bond with the catalytic serine of the HCV NS3/4A protease due to a modification of the α-ketoamide group. […] The NS3 expressing cells were treated with increasing concentrations of compounds for 4 hours.

[3] = test system: HCV subgenomic replicon in Huh7.5 cells; assay: Antiviral subgenomic replicon assay; format: cell-based; details: Hepatitis C virus, read-out: IC50, 50% reduction in reporter (luciferase) expression levels
Method: (§1) The antiviral activity of the degraders was evaluated in cell culture in a subgenomic replicon assay and an infectious assay. In the subgenomic replicon assay, the hepatoma cell line Huh7.5 was transfected with a HCV subgenomic replicon and treated with small molecules. The luciferase activity encoded by the subgenomic replicon served as a measure for viral replication. In the infectious assay, Huh7.5 cells were infected with HCV, and treated with small molecules. The amount of infectious virus released to the supernatants after treatment with the small molecule degraders served as a measure for their antiviral activity. […] The activity of the compounds described herein is dependent on protein degradation mediated by the cereblon E3 ligase, as HCV NS3 levels are partially rescued in the cereblon-deficient Huh7.5 cell line.
Huh7.5 cells were electroporated with the HCV subgenomic replicon and treated after 24 hours with a range of small molecule concentrations. The luciferase activity encoded by the replicon was measured in cells at 48 hours post-electroporation/24 hours post-treatment. The concentration of compound that led to a 50% reduction in reporter expression levels (IC50) was determined by non-linear regression.

[4] = test system: HCV in Huh7.5 cells; assay: Antiviral infectious assay (TCID50); format: cell-based, Hepatitis C virus; details: for IC50: Hepatitis C virus, read-out: IC50, 50% reduction in viral titers
Method: as §1
Huh7.5 cells were infected with HCV and treated after 24 hours with a range of small molecule concentrations. The amount of infectious virus released to the supernatants at 48 hours post-infection/24 hours post-treatment was measured using a 50% tissue infectious dose (TCID50) assay. The concentration of compound that led to a 50% reduction in viral titers (IC50) was determined by non-linear regression.

[5] = test system: wildtype HCV; assay: Viral resistance assay, wildtype HCV; format: cell-based; details: Hepatitis C virus, Huh7.5, read-out: IC50, 50% reduction in viral titers
Method: (§2) Mutations A156S and V55A, two well-characterized resistance mutations that are located in the active site of the HCV NS3 protease where telaprevir binds, were selected. Infectious HCV clones bearing the NS3-V55A mutation or the NS3-A156S mutation were generated.
(§3) Huh7.5 cells were infected with wildtype HCV, or the telaprevir-resistant mutant viruses, HCV(NS3-V55A) and HCV(NS3-A156S). Cells were treated 24 hours after infection with a range of small molecule concentrations. The amount of infectious virus released to the supernatants at 48 hours post-infection/24 hours post-treatment was measured using a 50% tissue infectious dose (TCID50) assay. The concentration of compound that led to a 50% reduction in viral titers (IC50) was determined by non-linear regression.

[6] = test system: HCV(NS3-A156S); assay: Viral resistance assay, HCV(NS3-A156S); format: cell-based, Hepatitis C virus
Method: as §2, §3

[7] = test system: HCV(NS3-V55A); assay: Viral resistance assay, HCV(NS3-V55A); format: cell-based, Hepatitis C virus
Method: as §2, §3

[8] = Huh7.5 cells, 48 hours post-infection/24 hours post-treatment, TCID50
[9] = Huh7.5 cells, 48 hours post-electroporation/24 hours post-treatment

Compound: CCC[C@H](NC(=O)[C@@H]1[C@H]2CCC[C@H]2CN1C(=O)[C@@H](NC(=O)[C@@H](NC(=O)c1cnc(C(=O)NCCCCCCNc2cccc3c2CN(C2CCC(=O)NC2=O)C3=O)cn1)C1CCCCC1)C(C)(C)C)C(=O)C(=O)NC1CC1 (stereo partly drawn) [Compound 1, N2-((S)-1-cyclohexyl-2-((S)-1-((1S,3aR,6aS)-1-((S)-1-(cyclopropylamino)-1,2-dioxohexan-3-ylcarbamoyl)hexahydrocyclopenta[c]pyrrol-2(1H)-yl)-3,3-dimethyl-1-oxobutan-2-ylamino)-2-oxoethyl)-N5-(6-(2-(2,6-dioxopiperidin-3-yl)-1-oxoisoindolin-4-ylamino)hexyl)pyrazine-2,5-dicarboxamide]
- effect of lenalidomide on compound-induced degradation of NS3 [1]: Lenalidomide inhibited degradation of NS3
- degradation of HCV NS3 by Western blot [2]: specific reduction in steady-state abundance
- DC50 [2]: 669 nM
- IC50 ([3]; Huh7.5, 48 h): 3040 nM

Compound: CCC[C@H](NC(=O)[C@@H]1[C@H]2CCC[C@H]2CN1C(=O)[C@@H](NC(=O)[C@@H](NC(=O)c1cnc(C(=O)NCCOCCOCCNc2cccc3c2C(=O)N(C2CCC(=O)NC2=O)C3=O)cn1)C1CCCCC1)C(C)(C)C)C(=O)C(=O)NC1CC1 (stereo partly drawn) [Compound 3, N2-((S)-1-cyclohexyl-2-((S)-1-((1S,3aR,6aS)-1-((S)-1-(cyclopropylamino)-1,2-dioxohexan-3-ylcarbamoyl)hexahydrocyclopenta[c]pyrrol-2(1H)-yl)-3,3-dimethyl-1-oxobutan-2-ylamino)-2-oxoethyl)-N5-(2-(2-(2-(2-(2,6-dioxopiperidin-3-yl)-1,3-dioxoisoindolin-4-ylamino)ethoxy)ethoxy)ethyl)pyrazine-2,5-dicarboxamide]
- IC50 [4, 8]: 2920 nM
- effect of lenalidomide on compound-induced degradation of NS3 [1]: Lenalidomide inhibited degradation of NS3
- degradation of HCV NS3 by Western blot [2]: specific reduction in steady-state abundance
- IC50 [3, 9]: 2620 nM

Compound: CCC[C@H](NC(=O)[C@@H]1[C@H]2CCC[C@H]2CN1C(=O)[C@@H](NC(=O)[C@@H](NC(=O)c1cnc(C(=O)NCCCCCCCC(=O)Nc2cccc3c2CN(C2CCC(=O)NC2=O)C3=O)cn1)C1CCCCC1)C(C)(C)C)C(=O)C(=O)NC1CC1 (stereo partly drawn) [Compound 4, N2-((S)-1-cyclohexyl-2-((S)-1-((1S,3aR,6aS)-1-((S)-1-(cyclopropylamino)-1,2-dioxohexan-3-ylcarbamoyl)hexahydrocyclopenta[c]pyrrol-2(1H)-yl)-3,3-dimethyl-1-oxobutan-2-ylamino)-2-oxoethyl)-N5-(8-(2-(2,6-dioxopiperidin-3-yl)-1-oxoisoindolin-4-ylamino)-8-oxooctyl)pyrazine-2,5-dicarboxamide]
- effect of lenalidomide on compound-induced degradation of NS3 [1]: Lenalidomide inhibited degradation of NS3
- degradation of HCV NS3 by Western blot [2]: specific reduction in steady-state abundance
- DC50 [2]: 2680 nM
- IC50 [3, 9]: 1320 nM

Compound: CCC[C@H](NC(=O)[C@@H]1[C@H]2CCC[C@H]2CN1C(=O)[C@@H](NC(=O)[C@@H](NC(=O)c1cnc(C(=O)NCCOCCOCCNc2cccc3c2C(=O)N(C2CCC(=O)NC2=O)C3=O)cn1)C1CCCCC1)C(C)(C)C)C(O)C(=O)NC1CC1 (stereo partly drawn) [Compound 11, N2-((1S)-1-cyclohexyl-2-((2S)-1-((1S,3aR,6aS)-1-((3S)-1-(cyclopropylamino)-2-hydroxy-1-oxohexan-3-ylcarbamoyl)hexahydrocyclopenta[c]pyrrol-2(1H)-yl)-3,3-dimethyl-1-oxobutan-2-ylamino)-2-oxoethyl)-N5-(2-(2-(2-(2-(2,6-dioxopiperidin-3-yl)-1,3-dioxoisoindolin-4-ylamino)ethoxy)ethoxy)ethyl)pyrazine-2,5-dicarboxamide]
- degradation of transiently expressed HCV NS3 (decrease in NS3-eGFP abundance) [2]: did not mediate degradation

Compound: CCC[C@H](NC(=O)[C@@H]1[C@H]2CCC[C@H]2CN1C(=O)[C@@H](NC(=O)[C@@H](NC(=O)c1cnc(C(=O)NCCOCCOCCOc2cc3c4c(cccc4c2)C(=O)N(C2CCC(=O)NC2=O)C3=O)cn1)C1CCCCC1)C(C)(C)C)C(=O)C(=O)NC1CC1 (stereo partly drawn) [Compound 13, N2-((S)-1-cyclohexyl-2-((S)-1-((1S,3aR,6aS)-1-((S)-1-(cyclopropylamino)-1,2-dioxohexan-3-ylcarbamoyl)hexahydrocyclopenta[c]pyrrol-2(1H)-yl)-3,3-dimethyl-1-oxobutan-2-ylamino)-2-oxoethyl)-N5-(2-(2-(2-(2-(2,6-dioxopiperidin-3-yl)-1,3-dioxo-2,3-dihydro-1H-benzo[de]isoquinolin-5-yloxy)ethoxy)ethoxy)ethyl)pyrazine-2,5-dicarboxamide]
- IC50 [4, 8]: 744 nM
- antiviral activity compared with telaprevir ([4]; subgenomic replicon and infectious assays, Huh7.5): antiviral potency close to that of the parental compound
- IC50 [5]: 522 nM
- effect of lenalidomide on compound-induced degradation of NS3 [1]: Lenalidomide inhibited degradation of NS3
- change in antiviral potency, NS3-A156S vs wildtype [6]: 3 fold
- IC50 ([6]; read-out: IC50, 50% reduction in viral titers, HCV(NS3-A156S), Huh7.5, TCID50): 1560 nM
- DC50 [2]: 50 nM
- IC50 ([7]; read-out: IC50, 50% reduction in viral titers, HCV(NS3-V55A), Huh7.5, TCID50): 508 nM

Compound: CCC[C@H](NC(=O)[C@@H]1[C@H]2CCC[C@H]2CN1C(=O)[C@@H](NC(=O)[C@@H](NC(=O)c1cnc(C(=O)NCCOCCOCCNc2cccc3c2C(=O)N(C2CCC(=O)N(C)C2=O)C3=O)cn1)C1CCCCC1)C(C)(C)C)C(=O)C(=O)NC1CC1 (stereo partly shown) [Compound 20]
- degradation of NS3 in the presence or absence of lenalidomide [1]: no significant degradation of NS3

Compound: CCC[C@H](NC(=O)[C@@H]1[C@H]2CCC[C@H]2CN1C(=O)[C@@H](NC(=O)[C@@H](NC(=O)c1cnc(C(=O)NCCOCCOCCOc2cc3c4c(cccc4c2)C(=O)N(C2CCC(=O)N(C)C2=O)C3=O)cn1)C1CCCCC1)C(C)(C)C)C(=O)C(=O)NC1CC1 (stereo partly drawn) [Compound 22, N2-((S)-1-cyclohexyl-2-((S)-1-((1S,3aR,6aS)-1-((S)-1-(cyclopropylamino)-1,2-dioxohexan-3-ylcarbamoyl)hexahydrocyclopenta[c]pyrrol-2(1H)-yl)-3,3-dimethyl-1-oxobutan-2-ylamino)-2-oxoethyl)-N5-(2-(2-(2-(2-(1-methyl-2,6-dioxopiperidin-3-yl)-1,3-dioxo-2,3-dihydro-1H-benzo[de]isoquinolin-5-yloxy)ethoxy)ethoxy)ethyl)pyrazine-2,5-dicarboxamide]
- degradation of NS3 in the presence or absence of lenalidomide [1]: no significant degradation of NS3
- degradation of transiently expressed HCV NS3 (decrease in NS3-eGFP abundance) [2]: did not degrade HCV NS3
- binding to cereblon (concluded from degradation assay) ([2]; N-methylated glutarimide negative controls): unable to bind cereblon

Compound: CCC[C@H](NC(=O)[C@@H]1[C@H]2CCC[C@H]2CN1C(=O)[C@@H](NC(=O)[C@@H](NC(=O)c1cnccn1)C1CCCCC1)C(C)(C)C)C(=O)C(=O)NC1CC1 [telaprevir, reference compound]
- IC50 ([4]; Huh7.5, 48 h): 138 nM
- IC50 [5]: 98 nM
- change in antiviral potency, NS3-A156S vs wildtype [6]: 10 fold
- degradation of transiently expressed HCV NS3 (decrease in NS3-eGFP abundance) [2]: not observed
- IC50 ([3]; Huh7.5, 48 h): 240 nM
- change in antiviral potency, NS3-V55A vs wildtype [7]: 3 fold
